Assay results taken from ChEMBL document CHEMBL1201862, “PubChem BioAssay data set” (2004).
Calls of active or inactive are those of the source.

Experiments:
Cytochrome P450 2D6 [1] = molecular target: T1, Cytochrome P450 2D6 (Homo sapiens, UniProt P10635);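 note: CYP2D6 member of a cytochrome P450 panel assay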
Cytochrome P450 2D6 [2] = molecular target: T1, Cytochrome P450 2D6; remark: listed apart in the source
ORF 73 = ORF 73 (Human herpesvirus 8, UniProt O40947); assay: inhibitors of C-LANA binding to LBS DNA, dose response, biochemical, fluorescence polarization, cherry-picked samples (AID 504725); parameters: species or system Human gammaherpesvirus 8;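 note: fluorescence polarization of a labeled DNA duplex reporting LANA DNA binding; potency is for inhibitors that block LANA binding to the DNA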
Sequence of ORF 73 (O40947 whole entry): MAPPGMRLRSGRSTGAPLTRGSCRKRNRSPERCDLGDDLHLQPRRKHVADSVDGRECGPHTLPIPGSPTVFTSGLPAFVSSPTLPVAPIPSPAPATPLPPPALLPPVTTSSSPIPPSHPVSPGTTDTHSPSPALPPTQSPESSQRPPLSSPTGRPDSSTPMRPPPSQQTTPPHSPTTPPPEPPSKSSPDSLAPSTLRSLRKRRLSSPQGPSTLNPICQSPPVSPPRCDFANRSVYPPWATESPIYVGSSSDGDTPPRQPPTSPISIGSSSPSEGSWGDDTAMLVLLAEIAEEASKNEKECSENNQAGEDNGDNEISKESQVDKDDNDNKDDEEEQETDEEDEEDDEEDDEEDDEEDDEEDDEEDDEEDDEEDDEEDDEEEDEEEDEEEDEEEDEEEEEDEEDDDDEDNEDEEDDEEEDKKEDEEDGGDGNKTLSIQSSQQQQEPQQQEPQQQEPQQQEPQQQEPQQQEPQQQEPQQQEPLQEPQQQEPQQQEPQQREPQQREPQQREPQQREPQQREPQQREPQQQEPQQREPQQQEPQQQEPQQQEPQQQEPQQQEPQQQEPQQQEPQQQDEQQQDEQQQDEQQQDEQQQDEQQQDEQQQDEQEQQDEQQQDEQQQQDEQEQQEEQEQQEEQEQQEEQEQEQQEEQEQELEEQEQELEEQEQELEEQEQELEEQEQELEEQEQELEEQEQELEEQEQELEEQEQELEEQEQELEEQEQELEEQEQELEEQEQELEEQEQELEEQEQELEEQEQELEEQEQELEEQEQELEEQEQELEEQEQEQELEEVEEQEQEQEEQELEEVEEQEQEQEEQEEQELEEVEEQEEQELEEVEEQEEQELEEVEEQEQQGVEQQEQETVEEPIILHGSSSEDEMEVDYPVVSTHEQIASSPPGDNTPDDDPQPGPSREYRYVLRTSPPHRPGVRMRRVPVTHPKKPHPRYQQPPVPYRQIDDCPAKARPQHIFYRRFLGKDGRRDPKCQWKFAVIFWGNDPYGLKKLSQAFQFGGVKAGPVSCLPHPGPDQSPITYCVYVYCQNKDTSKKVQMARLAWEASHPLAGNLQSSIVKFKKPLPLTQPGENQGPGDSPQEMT

[3] = molecular target: T2, Dual specificity protein phosphatase 6 (Rattus norvegicus, UniProt Q64346); assay type: functional
T2 sequence (Q64346 whole entry): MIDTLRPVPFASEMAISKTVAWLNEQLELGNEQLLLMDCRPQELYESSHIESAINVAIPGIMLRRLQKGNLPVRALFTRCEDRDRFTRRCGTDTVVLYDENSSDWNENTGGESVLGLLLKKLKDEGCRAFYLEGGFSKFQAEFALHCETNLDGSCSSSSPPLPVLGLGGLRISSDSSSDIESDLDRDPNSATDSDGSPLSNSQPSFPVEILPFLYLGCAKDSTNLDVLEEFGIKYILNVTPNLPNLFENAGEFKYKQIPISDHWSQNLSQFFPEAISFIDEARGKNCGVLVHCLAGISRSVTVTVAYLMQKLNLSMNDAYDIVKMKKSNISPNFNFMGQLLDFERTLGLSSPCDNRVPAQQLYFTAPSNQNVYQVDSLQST

[4] = molecular target: T3, Tyrosine-protein phosphatase non-receptor type 7 (Homo sapiens, UniProt P35236); assay type: functional
T3 sequence (P35236 whole entry): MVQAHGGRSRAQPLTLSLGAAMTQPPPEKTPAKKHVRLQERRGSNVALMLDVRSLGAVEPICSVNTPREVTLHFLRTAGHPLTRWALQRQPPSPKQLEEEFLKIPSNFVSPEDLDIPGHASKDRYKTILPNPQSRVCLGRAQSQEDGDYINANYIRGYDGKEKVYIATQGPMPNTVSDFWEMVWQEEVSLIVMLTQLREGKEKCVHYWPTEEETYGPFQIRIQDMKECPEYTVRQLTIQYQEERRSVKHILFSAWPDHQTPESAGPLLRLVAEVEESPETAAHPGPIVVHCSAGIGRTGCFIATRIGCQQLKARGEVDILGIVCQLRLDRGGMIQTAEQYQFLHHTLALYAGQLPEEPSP

[5] = molecular target: Glyceraldehyde-3-phosphate dehydrogenase (Homo sapiens, UniProt P04406)
Sequence of Glyceraldehyde-3-phosphate dehydrogenase (P04406 whole entry): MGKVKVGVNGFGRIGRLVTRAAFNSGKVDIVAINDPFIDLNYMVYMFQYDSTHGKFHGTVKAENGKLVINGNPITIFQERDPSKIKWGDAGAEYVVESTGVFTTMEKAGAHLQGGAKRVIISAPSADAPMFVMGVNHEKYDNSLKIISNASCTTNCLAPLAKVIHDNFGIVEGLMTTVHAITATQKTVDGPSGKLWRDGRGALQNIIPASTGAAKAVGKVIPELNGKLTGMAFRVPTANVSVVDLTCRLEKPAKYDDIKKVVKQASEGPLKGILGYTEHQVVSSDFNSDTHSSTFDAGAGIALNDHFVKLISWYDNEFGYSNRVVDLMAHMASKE

[6] = molecular target: T2, Dual specificity protein phosphatase 6
[7] = molecular target: Heat shock cognate 71 kDa protein (Homo sapiens, UniProt P11142); assay: In Vitro Hsc70 Dose Response Fluorescence Polarization Assay. [Related pubchem assays: 1072 ]
Sequence of Heat shock cognate 71 kDa protein (P11142 whole entry): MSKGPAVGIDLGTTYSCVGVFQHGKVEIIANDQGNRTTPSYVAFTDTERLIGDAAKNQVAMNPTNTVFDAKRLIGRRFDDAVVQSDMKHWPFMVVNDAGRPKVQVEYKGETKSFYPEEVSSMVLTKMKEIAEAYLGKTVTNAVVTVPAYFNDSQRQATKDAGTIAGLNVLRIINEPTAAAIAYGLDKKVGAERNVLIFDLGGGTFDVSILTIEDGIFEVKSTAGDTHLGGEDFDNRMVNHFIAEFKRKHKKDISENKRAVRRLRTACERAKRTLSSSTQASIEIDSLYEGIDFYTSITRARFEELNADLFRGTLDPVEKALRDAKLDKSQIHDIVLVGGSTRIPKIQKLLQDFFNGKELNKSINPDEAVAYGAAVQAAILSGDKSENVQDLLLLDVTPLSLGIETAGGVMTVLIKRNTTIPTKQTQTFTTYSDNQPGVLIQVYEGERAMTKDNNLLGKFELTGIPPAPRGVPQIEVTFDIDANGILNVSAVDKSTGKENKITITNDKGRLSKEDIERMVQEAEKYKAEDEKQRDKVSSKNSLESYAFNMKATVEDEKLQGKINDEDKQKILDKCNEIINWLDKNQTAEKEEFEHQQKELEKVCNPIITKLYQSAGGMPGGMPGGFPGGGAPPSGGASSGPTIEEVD

[8] = molecular target: Heat shock 70 kDa protein 1A (Homo sapiens, UniProt P0DMV8); assay: Hsp70 inhibitors, SAR follow-up, biochemical, fluorescence polarization (AID 1072)
Sequence of Heat shock 70 kDa protein 1A (P0DMV8 whole entry): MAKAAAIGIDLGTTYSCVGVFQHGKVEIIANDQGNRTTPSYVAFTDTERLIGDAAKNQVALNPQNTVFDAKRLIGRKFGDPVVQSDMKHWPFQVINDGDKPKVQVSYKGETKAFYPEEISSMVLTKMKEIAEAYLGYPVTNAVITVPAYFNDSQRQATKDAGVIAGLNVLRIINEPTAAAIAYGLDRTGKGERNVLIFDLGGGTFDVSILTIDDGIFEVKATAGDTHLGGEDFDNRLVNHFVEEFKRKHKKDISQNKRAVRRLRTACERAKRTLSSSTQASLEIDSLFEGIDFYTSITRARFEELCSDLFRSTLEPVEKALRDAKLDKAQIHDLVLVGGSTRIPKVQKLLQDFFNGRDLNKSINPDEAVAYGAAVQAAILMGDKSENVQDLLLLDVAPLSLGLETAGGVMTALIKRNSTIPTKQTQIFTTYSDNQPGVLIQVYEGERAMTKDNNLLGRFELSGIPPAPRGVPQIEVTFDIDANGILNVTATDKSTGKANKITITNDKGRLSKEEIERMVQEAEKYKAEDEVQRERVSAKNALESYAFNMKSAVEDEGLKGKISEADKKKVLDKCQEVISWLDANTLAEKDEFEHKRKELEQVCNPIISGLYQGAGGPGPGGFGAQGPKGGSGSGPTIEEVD

Estrogen receptor beta = Estrogen receptor beta (Homo sapiens, UniProt Q92731); assay: ERβ–SRC-3 coactivator interaction inhibitors, confirmation, orthogonal assay, biochemical, ELISA, streptavidin-HRP readout (AID 1060)
Sequence of Estrogen receptor beta (Q92731 whole entry): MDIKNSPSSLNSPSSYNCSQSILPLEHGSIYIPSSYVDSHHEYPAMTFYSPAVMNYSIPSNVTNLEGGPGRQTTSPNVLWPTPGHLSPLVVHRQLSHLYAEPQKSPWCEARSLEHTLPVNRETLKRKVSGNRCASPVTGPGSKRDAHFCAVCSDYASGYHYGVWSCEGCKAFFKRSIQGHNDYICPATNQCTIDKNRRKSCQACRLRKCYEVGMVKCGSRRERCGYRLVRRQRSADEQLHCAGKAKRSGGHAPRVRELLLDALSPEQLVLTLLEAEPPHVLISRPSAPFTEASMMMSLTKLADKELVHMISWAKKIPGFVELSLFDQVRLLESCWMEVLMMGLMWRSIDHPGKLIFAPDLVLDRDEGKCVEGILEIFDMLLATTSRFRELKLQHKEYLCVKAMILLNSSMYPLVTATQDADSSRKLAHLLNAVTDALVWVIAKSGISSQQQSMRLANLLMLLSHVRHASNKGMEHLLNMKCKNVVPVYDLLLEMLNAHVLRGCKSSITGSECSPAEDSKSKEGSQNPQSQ

[9] = molecular target: T4, Zinc finger protein mex-5 (Caenorhabditis elegans, UniProt Q9XUB2); assay: MEX-5/TCR-2 RNA interaction inhibitors, dose response, biochemical, C. elegans, fluorescence polarization (AID 1960)
T4 sequence (Q9XUB2 whole entry): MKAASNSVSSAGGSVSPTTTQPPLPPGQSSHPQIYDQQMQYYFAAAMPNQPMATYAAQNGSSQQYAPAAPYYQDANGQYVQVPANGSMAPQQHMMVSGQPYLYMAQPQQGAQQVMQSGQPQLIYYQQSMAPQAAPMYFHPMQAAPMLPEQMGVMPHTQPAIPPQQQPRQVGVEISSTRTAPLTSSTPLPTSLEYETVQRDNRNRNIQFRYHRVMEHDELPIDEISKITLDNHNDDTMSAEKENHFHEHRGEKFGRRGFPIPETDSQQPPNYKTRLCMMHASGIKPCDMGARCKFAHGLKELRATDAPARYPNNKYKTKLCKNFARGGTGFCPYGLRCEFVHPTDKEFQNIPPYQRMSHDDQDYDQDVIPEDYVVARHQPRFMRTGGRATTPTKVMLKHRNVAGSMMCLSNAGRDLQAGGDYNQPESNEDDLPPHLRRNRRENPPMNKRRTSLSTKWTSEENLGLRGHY

[10] = molecular target: Induced myeloid leukemia cell differentiation protein Mcl-1 (Homo sapiens, UniProt Q07820); assay type: functional
Sequence of Induced myeloid leukemia cell differentiation protein Mcl-1 (Q07820 whole entry): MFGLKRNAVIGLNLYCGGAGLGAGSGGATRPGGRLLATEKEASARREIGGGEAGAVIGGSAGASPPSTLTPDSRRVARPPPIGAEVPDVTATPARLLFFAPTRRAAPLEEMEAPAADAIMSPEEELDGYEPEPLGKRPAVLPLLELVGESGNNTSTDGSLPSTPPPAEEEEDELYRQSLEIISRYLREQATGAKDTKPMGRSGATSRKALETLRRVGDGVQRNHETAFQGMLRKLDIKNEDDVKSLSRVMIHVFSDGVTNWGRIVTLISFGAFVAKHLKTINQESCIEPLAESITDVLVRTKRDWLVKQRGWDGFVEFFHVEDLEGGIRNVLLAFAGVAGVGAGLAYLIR

Estrogen receptor = molecular target: T5, Estrogen receptor (Homo sapiens, UniProt P03372);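 note: potency for inhibiting coactivator peptide recruitment to the receptor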
T5 sequence (P03372 whole entry): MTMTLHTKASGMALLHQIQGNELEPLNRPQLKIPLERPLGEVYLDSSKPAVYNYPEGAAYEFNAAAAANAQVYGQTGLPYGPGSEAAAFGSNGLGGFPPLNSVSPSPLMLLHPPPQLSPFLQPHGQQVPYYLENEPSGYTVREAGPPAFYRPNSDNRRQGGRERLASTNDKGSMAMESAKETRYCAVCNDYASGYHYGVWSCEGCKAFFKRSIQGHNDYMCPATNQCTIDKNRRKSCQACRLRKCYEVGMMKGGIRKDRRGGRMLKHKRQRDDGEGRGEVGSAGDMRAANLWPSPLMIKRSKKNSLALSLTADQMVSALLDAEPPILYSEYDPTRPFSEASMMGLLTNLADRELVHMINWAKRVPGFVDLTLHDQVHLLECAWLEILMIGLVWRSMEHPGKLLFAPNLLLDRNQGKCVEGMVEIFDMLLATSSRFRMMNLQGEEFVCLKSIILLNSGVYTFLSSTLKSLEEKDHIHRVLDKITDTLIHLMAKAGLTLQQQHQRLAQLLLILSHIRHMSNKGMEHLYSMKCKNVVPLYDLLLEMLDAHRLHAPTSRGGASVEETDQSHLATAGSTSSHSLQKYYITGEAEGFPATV

[11] = molecular target: T6, RNA-binding protein pos-1 (Caenorhabditis elegans, UniProt G5EF15); assay: inhibitors of POS-1/mex-3 RNA binding, dose response, biochemical, fluorescence polarization (AID 1964);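 note: purified POS-1 fused to maltose binding protein made in E. coli; potency of compounds blocking POS-1 binding to fluorescent RNA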
T6 sequence (G5EF15 whole entry): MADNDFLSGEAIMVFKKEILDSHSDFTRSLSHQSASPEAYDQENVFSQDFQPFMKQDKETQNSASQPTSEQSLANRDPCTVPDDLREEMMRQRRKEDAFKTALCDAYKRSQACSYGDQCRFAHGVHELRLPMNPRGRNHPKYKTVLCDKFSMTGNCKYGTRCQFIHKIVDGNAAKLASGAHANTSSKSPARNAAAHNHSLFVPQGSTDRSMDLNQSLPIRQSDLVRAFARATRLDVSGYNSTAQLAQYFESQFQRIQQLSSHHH

[12] = molecular target: Melanin-concentrating hormone receptor 1 (Homo sapiens, UniProt Q99705); assay: Late-stage fluorescence-based counterscreen for antagonists of the G-protein coupled receptor 7 (GPR7): cell-based dose response assay to identify antagonists of the melanin-concentrating hormone receptor 1 (MCHR1). [Related pubchem assays (depositor defined):AID1861, AID1880, AID1952, AID2148, AID2251, AID2257, AID485339]; assay type: functional;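 note: stimulated with 30 nM MCH peptide agonist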
Sequence of Melanin-concentrating hormone receptor 1 (Q99705 whole entry): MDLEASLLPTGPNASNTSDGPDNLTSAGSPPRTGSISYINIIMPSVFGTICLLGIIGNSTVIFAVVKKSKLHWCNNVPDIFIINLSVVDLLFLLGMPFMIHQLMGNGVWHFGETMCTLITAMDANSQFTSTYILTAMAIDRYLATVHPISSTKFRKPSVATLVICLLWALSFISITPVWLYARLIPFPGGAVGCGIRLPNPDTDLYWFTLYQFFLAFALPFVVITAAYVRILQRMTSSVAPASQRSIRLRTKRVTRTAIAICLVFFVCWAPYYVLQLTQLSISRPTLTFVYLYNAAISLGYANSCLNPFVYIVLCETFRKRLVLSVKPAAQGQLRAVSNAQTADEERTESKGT

T1 sequence (P10635 whole entry): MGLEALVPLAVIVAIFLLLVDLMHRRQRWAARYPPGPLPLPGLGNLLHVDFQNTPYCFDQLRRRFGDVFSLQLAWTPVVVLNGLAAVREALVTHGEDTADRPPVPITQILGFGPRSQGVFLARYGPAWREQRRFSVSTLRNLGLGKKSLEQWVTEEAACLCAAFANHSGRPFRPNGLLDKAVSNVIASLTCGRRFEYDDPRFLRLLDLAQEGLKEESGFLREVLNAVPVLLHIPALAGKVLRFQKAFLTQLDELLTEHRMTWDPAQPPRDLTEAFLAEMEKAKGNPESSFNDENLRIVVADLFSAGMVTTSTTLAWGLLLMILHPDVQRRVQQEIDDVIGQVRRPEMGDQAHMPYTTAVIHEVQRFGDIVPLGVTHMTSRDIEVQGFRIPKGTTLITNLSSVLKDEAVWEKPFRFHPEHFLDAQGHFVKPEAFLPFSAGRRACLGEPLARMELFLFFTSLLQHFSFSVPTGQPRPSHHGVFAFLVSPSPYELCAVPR

Q: For `OCCN(CCO)c1nc(N2CCCCC2)c2nc(N(CCO)CCO)nc(N3CCCCC3)c2n1` [DIPYRIDAMOLE], which AC50 (Cytochrome P450 2D6 [1]) is on record?
A: inactive

Q: And the AC50 (Cytochrome P450 2D6 [2])?
A: 10 µM (active)

Q: And the AC50 (ORF 73)?
A: 8.87 µM (active)

Q: Which results are given for `O=C(Oc1ccc2c(c1)C1C=CCC1C(C(=O)O)N2)c1ccc(Cl)cc1Cl` (centres undefined)?
A: IC50 [3]: 15.6 µM (active); IC50 [4]: 2.38 µM (active); IC50 [5]: > 100 µM (not active); IC50 [6]: 17 µM (active); IC50 [7]: > 100 µM (not active); IC50 [8]: > 100 µM (not active)

Q: For `O=C(O)C1Nc2c(C(=O)N3CCOCC3)cccc2C2C=CCC12` (centres undefined), which IC50 (Estrogen receptor beta) is on record?
A: 0.0407 µM (not active)

Q: What about the IC50 [5] of the same compound?
A: > 100 µM (not active)

Q: What about the IC50 [7] of the same compound?
A: > 100 µM (not active)

Q: What about the EC50 [9] of the same compound?
A: 21.3 µM (inconclusive)

Q: And the IC50 [10]?
A: 2.78 µM (not active)

Q: What about the IC50 [8] of the same compound?
A: > 100 µM (not active)

Q: What about the IC50 (Estrogen receptor) of the same compound?
A: 15.9 µM (active)

Q: What about the EC50 [11] of the same compound?
A: 45.1 µM (active)

Q: For `CC(C)c1ccc(-n2ncc(Cl)c(Oc3ccc(Cl)c(Cl)c3)c2=O)cc1`, which IC50 [12] is on record?
A: 15.9 µM (inactive)

Q: Which IC50 (cells) does the source give for `CC1=C2C(=O)C3C(CC=C4CC(O)CCC43C)C2CCC12OC1CC(C)CNC1C2C` (centres undefined) here?
A: 4.18 µM (active)
